Reference: US20100028259A1, “USE OF ORGANIC CATION TRANSPORTERS FOR CANCER DIAGNOSIS AND THERAPY” (The Regents of the University of California, priority 2006, published 2010)
Where two headings read alike, the source gives them in different places.

How the values were obtained:
[1] = system: MDCK-MOCK cells; assay: MTT drug sensitivity assay in MDCK-MOCK cells; format: cell-based, canine
Protocol: (§1) Cytotoxicity of the platinum-based compounds was measured by MTT (thiazolyl blue tetrazolium bromide) assay. Cells were seeded in 100 μl of the culture medium without any antibiotics in 96-well plates at a predetermined cell density. For HEK 293 cells, poly-D-lysine coated plates were used. After overnight incubation, the platinum-based compounds were then added to the culture medium to give the indicated final concentrations. For the OCT inhibitor studies, the inhibitors (i.e., disopyramide or cimetidine) were added to the medium at a specified concentration immediately before the addition of the platinum-based compounds. After incubation for a specified time period, the drug-containing medium was replaced with fresh, drug-free medium and the incubation was continued for a total of 72 hours (start from the addition of platinum-based compounds). Then, the MTT assay was performed similarly as described in Alley et al., Cancer Res., 48:589-601 (1988). […] The maximal cell growth was the cell growth in the medium without any platinum-based compounds; C is the concentration of the platinum-based compound, and γ is the slope factor.
(§2) Briefly, the cells were seeded in 96-well plates at a density of 5,000 cells/well for the transfected MDCK cells or 12,000 cells/well for the transfected HEK 293 cells. The platinum-based drugs were added on the following day. After the specified time periods of drug exposure, the drug-containing medium was replaced with fresh, drug-free medium, and the incubation was continued for a total of 72 hours (start from the time when the drug was added). After incubation, the cell growth was determined by an MTT assay. Data are expressed as mean±SD from 3 to 6 independent experiments with each performed in quadruplicate. The resistance factor (RF) was defined as the ratio of the mean IC50 value in the MOCK cells to that in the OCT-transfected cells.
Briefly, MDCK cells were seeded at a density of 5,000 cells/well in 96-well plates and exposed to the test compounds for 7 hours on the following day. After incubation for a total of 72 hours, the cell growth was determined by an MTT assay. The data for carboplatin was taken from Table 1 and was not determined simultaneously with the other compounds. The resistance factor (RF) was defined as the ratio of the mean IC50 value in MDCK-MOCK cells to that in MDCK-hOCT1 cells. Data are expressed as mean±SD from six measurements, and each measurement was performed in quadruplicate.

[2] = system: HEK-hOCT2 cells; assay: MTT drug sensitivity assay in HEK-hOCT2 cells; format: cell-based, human
Protocol: as §1, with “After overnight incubation, the platinum-based compounds were then added to the culture medium to give the indicated final concentrations.” left out
as §2

[3] = system: HCT116; assay: MTT drug sensitivity, colon cancer cell line HCT116; format: cell-based, human
Protocol: as §1, with “After overnight incubation, the platinum-based compounds were then added to the culture medium to give the indicated final concentrations.” left out
(§3) The cell seeding density was 6,000-, 8,000-, 6,000-, 15,000-12,000- and 4,000 cells/well for HCT116, HT29, RKO, SW620, LS180, and DLD cells, respectively. When cimetidine (1.5 mM) was used, it was added to the wells immediately before the addition of the platinum-based drugs. The resistance factor (RF) was defined as the ratio of the mean IC50 value in the presence to that in the absence of cimetidine. Data are expressed as mean±SD from six measurements, and each measurement was performed in quadruplicate.

[4] = system: HEK-MOCK cells; assay: MTT drug sensitivity assay in HEK-MOCK cells (control of HEK-hOCT3); format: cell-based, human; conditions: Table 3
Protocol: as §1, §2

[5] = system: six colon cancer cell lines; assay: MTT drug sensitivity, summary over the six colon cancer cell lines; format: cell-based, human
Protocol: as §1, with “After overnight incubation, the platinum-based compounds were then added to the culture medium to give the indicated final concentrations.” left out
The resistance factor (RF) due to the presence of cimetidine was defined as the ratio of the IC50 value in the presence of cimetidine to that in the absence of cimetidine.
as §3

[6] = system: HEK-MOCK cells; assay: MTT drug sensitivity assay in HEK-MOCK cells (control of HEK-hOCT2); format: cell-based, human
Protocol: as §1, §2

[7] = system: LS180; assay: MTT drug sensitivity, colon cancer cell line LS180; format: cell-based, human
Protocol: as §1, with “After overnight incubation, the platinum-based compounds were then added to the culture medium to give the indicated final concentrations.” left out
as §3

[8] = system: SW620; assay: MTT drug sensitivity, colon cancer cell line SW620; format: cell-based, human
Protocol: as §1, with “After overnight incubation, the platinum-based compounds were then added to the culture medium to give the indicated final concentrations.” left out
as §3

[9] = system: RKO; assay: MTT drug sensitivity, colon cancer cell line RKO; format: cell-based, human
Protocol: as §1, with “After overnight incubation, the platinum-based compounds were then added to the culture medium to give the indicated final concentrations.” left out
as §3

[10] = system: DLD; assay: MTT drug sensitivity, colon cancer cell line DLD; format: cell-based, human
Protocol: as §1, with “After overnight incubation, the platinum-based compounds were then added to the culture medium to give the indicated final concentrations.” left out
as §3

[11] = absence of cimetidine, read-out: IC50 Control
[12] = cimetidine 1.5 mM, read-out: IC50 Cimetidine-treated

Compound: O=C1[O][Pt]2([NH][C@@H]3CCCC[C@H]3[NH]2)[O]C1=O [oxaliplatin]
- IC50 ([1]; SAR study Table 4, 7 hours of drug exposure, read-out: IC50 MDCK-MOCK): 10.9 ± 3.66 µM
- IC50 ([1]; co-incubation with disopyramide 150 μM, read-out: IC50 in MDCK-MOCK, disopyramide-treated): 32.2 ± 13 µM
- IC50 ([1]; disopyramide study (FIG. 2D), without disopyramide, read-out: IC50 in MDCK-MOCK, control): 30.4 ± 9.28 µM
- IC50 ([1]; drug exposure 7 hour, MTT at 72 hours, Table 1, read-out: IC50 MDCK-MOCK): 33 ± 9.12 µM
- IC50 ([1]; drug exposure 24 hour, MTT at 72 hours, Table 1, read-out: IC50 MDCK-MOCK): 14.3 ± 5.55 µM
- IC50 ([1]; drug exposure 72 hour, Table 1, read-out: IC50 MDCK-MOCK): 9.64 ± 1.85 µM
- IC50 ([2]; co-incubation with cimetidine 1.5 mM, read-out: IC50 in HEK-hOCT2, cimetidine-treated): 2.81 ± 1.63 µM
- IC50 ([2]; drug exposure 7 hour, read-out: IC50 HEK-hOCT2): 0.039 ± 0.025 µM
- IC50 ([2]; drug exposure 24 hour, read-out: IC50 HEK-hOCT2): 0.02 ± 0.001 µM
- IC50 ([2]; drug exposure 72 hour, read-out: IC50 HEK-hOCT2): 0.019 ± 0.004 µM
- IC50 ([3]; HCT116, absence of cimetidine, read-out: IC50 Control): 2.37 ± 1.44 µM
- IC50 ([3]; HCT116, cimetidine 1.5 mM, read-out: IC50 Cimetidine-treated): 18.8 ± 6.19 µM
- IC50 ([4]; drug exposure 7 hour): 1.47 ± 0.28 µM
- IC50 ([4]; drug exposure 24 hour): 0.47 ± 0.05 µM
- IC50 ([4]; drug exposure 72 hour): 0.47 ± 0.12 µM
- IC50 ([5]; absence of cimetidine, read-out: mean±SE of IC50 in the six cell lines, control): 3.88 ± 1.42 µM
- IC50 ([5]; cimetidine 1.5 mM, read-out: mean±SE of IC50 in the six cell lines, in the presence of cimetidine): 29.1 ± 10.7 µM
- IC50 ([6]; co-incubation with cimetidine 1.5 mM, read-out: IC50 in HEK-MOCK, cimetidine-treated): 9.5 ± 2.95 µM
- IC50 ([6]; drug exposure 7 hour, Table 2, read-out: IC50 HEK-MOCK): 2.99 ± 1.51 µM
- IC50 ([6]; drug exposure 24 hour, Table 2, read-out: IC50 HEK-MOCK): 1.5 ± 0.69 µM
- IC50 ([6]; drug exposure 72 hour, Table 2, read-out: IC50 HEK-MOCK): 0.93 ± 0.056 µM
- IC50 ([7]; LS180, absence of cimetidine, read-out: IC50 Control): 1.3 ± 0.41 µM
- IC50 ([7]; LS180, cimetidine 1.5 mM, read-out: IC50 Cimetidine-treated): 8.39 ± 2.77 µM
- IC50 ([8]; SW620, absence of cimetidine, read-out: IC50 Control): 2.81 ± 1 µM
- IC50 ([8]; SW620, cimetidine 1.5 mM, read-out: IC50 Cimetidine-treated): 14.2 ± 2.81 µM
- IC50 [9, 11]: 1.64 ± 0.56 µM
- IC50 [9, 12]: 9.7 ± 2.7 µM
- IC50 [10, 11]: 10.6 ± 5.99 µM
- IC50 [10, 12]: 71.3 ± 12.9 µM
